Series [1] has as its system TA102. In words: AmesTest, strain TA102. The protocol:
(§1) 4.3 Sample processing and preparation: 4000 mg sample was weighted and distilled water was added into the sample to 20 ml, then the mixture was blended to obtain a 200 mg/ml of solution. 3, 1, 0.3 and 0.1 mL of this solution were taken, respectively and each was added with sterile distilled water to 10 ml to obtain a solution in the concentration of 60 mg/ml, 20 mg/ml, 6 mg/ml and 2 mg/ml, respectively.
(§2) 4.4 Test doses: 0.2 mg/dish, 0.6 mg/dish, 2 mg/dish, 6 mg/dish and 20 mg/dish
(§3) 4.7 Test strains: TA97, TA98, TA100 and TA102, with qualitied biological characters, provided by Biochemistry Dept., California University, CA, America. The concentration of the bacteria liquid used for the test was 1-2×10^9/ml.
A healthy adult SD rat with a body weight of about 150 g was selected. Polychlorinatedbiphenyl was dissolved into corn oil to obtain a solution of 200 mg/ml. The above solution was injected (i.p.), in a sterile operation, into the rat in a dose of 500 mg/kg. 5 days later, the animal was sacrificed via decapitation. The liver was taken out and weighted, then rinsed several times with 0.15 mol/L of fresh cooled solution of potassium chloride. The amount of the potassium chloride solution was 3 ml/g liver (wet weight). The beaker in which the rinsed liver put was removed into an ice bath, and the liver was cut into pieces with a pair of sterilized scissors. The liver was homogenized with a tissue homogenizer (2000 r/min, 1 min), then the liver homogenate thus prepared was centrifuged in a high speed centrifuge (0-4° C., 9000 g, 10 min). The supernatant, S9 part, was packed into several sterile tubes and conserved in liquid nitrogen. The above steps need to be operated in a sterile and cooled local circumstance. The S9 thus prepared was further identified for its content of protein and bioactivity of indirect mutagen.
Standard plate incorporation on the basis of GB15193-94: Into the top agar (45° C., 2 ml), the bacterial liquid 0.1 ml, Sample 0.1 ml and S9 mixture 0.5 ml for activation were added sequently. The mixture was blended sufficiently and poured rapidly onto the underlayer medium. After the incubation of 48 hr. at 37° C., results were observed. each test was repeated once more.

Series [2] has as its system spermatozoa. In words: Teratospermia Test. The note with it: positive control 40 mg/kg. It counts as in vivo, mice. The protocol:
3.2 Preparation of sample: Sample 5000, 2500 or 1250 mg was weighted and grinded. Distilled water was added into the grinded sample to 20 ml, and the mixture was blended sufficiently to obtain a test sample.
3.3 Animal subject: Male mice, depuratory grade, 25-30 g, provided by experimental animal department, Fudan University. Certificate No.: 02-22-1.
3.5.1 Animals were divided randomly into 5 groups, 5 in each group. It the five groups, there were three groups for three doses of test sample, one negative control group, distilled water, and one positive control group, cyclophosphaide.
3.5.2. Animals were weighted and administrated with the test sample or control substances in different concentrations in a volume of 0.4 ml/20 g via an intragastric catheter, once a day for 5 days.
3.5.3 Animals were sacrificed via cervical bertebra dislocation 35 days after the first intragastric administration. The ambo-epididymises were taken off and put into normal saline. After being cut into pieces, they were filtered through a four layer gauze. The filter was smeared, fixed and dyed with 2% eosin.
3.5.4 Test under microscope: Amounts of teratosperm in 1000 spernatozoas were counted per mouse and rates of teratospermia were calculated statistically.

Series [3] relates to philo-pleochromatic akaryocytes in animal marrow. In words: Micronucleus Test. It counts as in vivo, mice. The note with it: positive control 40 mg/kg; for Micronucleated Cells No.: 5000 cells tested. The protocol: 2.2 Preparation of sample: Sample 5000, 2500 or 1250 mg was weighted and grinded. Distilled water was added into the grinded sample to 20 ml, and the mixture was blended sufficiently to form a test sample.
2.3 Animal subject: Kunming species of mice, 25-30 g, provided by experimental animal department, Fudan University. Certificate No.: 02-22-1.
2.5.1 Animals were divided randomly into 5 groups, 10 in each group with half of female and half of male. In the five groups, there were three groups for three doses of test sample, one negative control group, distilled water, and one positive control group, cyclophosphaide.
2.5.2. Animals were weighted and administrated with the test sample or control substances in different concentrations in a volume of 0.4 ml/20 g via an intragastric catheter, and the administration is repeated once more in 30 hr.
2.5.3 Animals were sacrificed via cervical bertebra dislocation 6 hr. after the second intragastric administration. The marrow was taken out of the femoral bone and blended uniformly with calf serum. Then, the film preparation, the fixation, and Giemasa stain were undertaken conventionally.
2.5.4 Test under microscope: Numbers of micronuclei were counted in over one thousand of philo-pleochromatic akaryocytes. Incidence rates of micronuclei were calculated and analyzed statistically.

Series [4] has as its system TA100. Nature of the series: AmesTest, strain TA100. How it is done:
as §1, §2, §3
A healthy adult SD rat with a body weight of about 150 g was selected. Polychlorinatedbiphenyl was dissolved into corn oil to obtain a solution of 200 mg/ml. The above solution was injected (i.p.), in a sterile operation, into the rat in a dose of 500 mg/kg. 5 days later, the animal was sacrificed via decapitation. The liver was taken out and weighted, then rinsed several times with 0.15 mol/L of fresh cooled solution of potassium chloride. The amount of the potassium chloride solution was 3 ml/g liver (wet weight). The beaker in which the rinsed liver put was removed into an ice bath, and the liver was cut into pieces with a pair of sterilized scissors. […]

Series [5] has as its system M cells. Nature of the series: tissue culture experiments, growth of M cells / collagen fiber network. In kind it is cell-based. The following applies: vs control group (P>0.05). From the text:
The difference in comparison with the control group is statistically significant ([…]).

Where [6] appears, read: Salmonella typhimurium, 48 h, 1 μl/dish.

Counter-ions that a name gives are not always drawn.

Turning to `O=C1c2cccc(O)c2C(=O)c2c(O)cccc21` [1,8-dioxy anthraquinone], the Re-established colonies in series [1] (first test, TA102 +S9, positive control 50 μl/dish) is given as 885 ± 56 colonies/sish; in series [1] (second test, TA102 +S9, positive control 50 μl/dish), 975 ± 86 colonies/sish.
Take `O=P1(N(CCCl)CCCl)NCCCO1` (stereo not shown) [Cyclophosphaide]: the “Aberration rate (‰)” value in series [2] is listed as 58.4 ‰. Moreover, in series [2] (5000 spernatozoa tested), the “Type of aberration (n): Banana sharp” value is 32, the “Type of aberration (n): Double head” value stood at 4, the “Type of aberration (n): Double tail” value was 6 and the “Type of aberration (n): Fat head” value amounted to 45. Besides, in series [2] (5000 spernatozoa tested), the “Type of aberration (n): Fold tail” value stood at 2, the “Type of aberration (n): No crook” value turned out to be 28 and the “Type of aberration (n): amorphism” value was found to be 175. In addition, in series [3] (F), the “Rate of Micronuclei (‰)” value is listed as 25.8 ‰ and the “Micronucleated Cells No.” value worked out at 129. Further, in series [3] (M), the “Rate of Micronuclei (‰)” value is on record as 26.4 ‰ and the “Micronucleated Cells No.” value was 132.
In the case of `COS(C)(=O)=O` [Methyl mesylate], the Re-established colonies turned out to be 1641 ± 80 colonies/sish in series [4] (setting [6]); 1463 ± 84 colonies/sish in series [4] (first test, TA100 −S9, positive control 1 μl/dish); 2520 ± 112 colonies/sish in series [1] (setting [6]); 2784 ± 289 colonies/sish in series [1] (first test, TA102 −S9, positive control 1 μl/dish).
Take `C[C@@H]1O[C@@H](O[C@@H]2[C@@H](O)[C@H](OCCc3ccc(O)c(O)c3)O[C@H](CO)[C@H]2OC(=O)/C=C/c2ccc(O)c(O)c2)[C@H](O)[C@H](O)[C@H]1O` [acteoside, Acteoside]: the “promotion on the growth of M cells” value in series [5] is recorded as “obvious promotion”.

For the origin of these results see patent US20090301508A1, “Cosmetic Composition and Preparation Method and Use Thereof” (priority 2006, published 2009).
